Measurements published in paper PMC10385824, “Antiproliferative and Tubulin-Destabilising Effects of 3-(Prop-1-en-2-yl)azetidin-2-Ones and Related Compounds in MCF-7 and MDA-MB-231 Breast Cancer Cells” (Pharmaceuticals, 2023).
Where two headings read alike, the source gives them in different places.

Legend:
[1] = system: purified bovine brain tubulin; experiment: Tubulin polymerization assay (light scattering, BK006 kit); type: biochemical; conditions: compound at 10 μM; for Fold Reduction in Vmax: relative to vehicle; for Vmax: 37 °C, 340 nm
Outline: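 Compounds tested at 10 µM against vehicle (1% DMSO or EtOH) with bovine brain tubulin, 3 mg/mL, in pH 6.9 PIPES buffer containing 1 mM GTP and 10% glycerol, 37 °C. Light scattering at 340 nm tracked microtubule formation; average of two independent runs reported.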

HL-60(TB) = experiment: NCI-60 SRB screen, leukemia; type: cell-based, human; conditions: Homo sapiens
RPMI-8226 = experiment: NCI-60 SRB screen, leukemia; type: cell-based, human; conditions: Homo sapiens
SR = experiment: NCI-60 SRB screen, leukemia; type: cell-based, human; conditions: Homo sapiens, 48 h
HOP-62 = experiment: NCI-60 SRB screen, non-small cell lung cancer; type: cell-based, human; conditions: Homo sapiens
NCI-H23 = experiment: NCI-60 SRB screen, non-small cell lung cancer; type: cell-based, human; conditions: Homo sapiens
COLO 205 = experiment: NCI-60 SRB screen, colon cancer; type: cell-based, human; conditions: Homo sapiens
HCT-2998 = experiment: NCI-60 SRB screen, colon cancer; type: cell-based, human; conditions: Homo sapiens, 48 h
HCT-116 = experiment: NCI-60 SRB screen, colon cancer; type: cell-based, human; conditions: Homo sapiens
HT29 = experiment: NCI-60 SRB screen, colon cancer; type: cell-based, human; conditions: Homo sapiens
SNB-19 = experiment: NCI-60 SRB screen, CNS cancer; type: cell-based, human; conditions: Homo sapiens
U251 = experiment: NCI-60 SRB screen, CNS cancer; type: cell-based, human; conditions: Homo sapiens
PC-3 = experiment: NCI-60 SRB screen, prostate cancer; type: cell-based, human; conditions: Homo sapiens
SK-MEL-5 = experiment: NCI-60 SRB screen, melanoma; type: cell-based, human; conditions: Homo sapiens
UACC-62 = experiment: NCI-60 SRB screen, melanoma; type: cell-based, human; conditions: Homo sapiens
IGROV1 = experiment: NCI-60 SRB screen, ovarian cancer; type: cell-based, human; conditions: Homo sapiens
OVCAR-3 = experiment: NCI-60 SRB screen, ovarian cancer; type: cell-based, human; conditions: Homo sapiens
OVCAR-5 = experiment: NCI-60 SRB screen, ovarian cancer; type: cell-based, human; conditions: Homo sapiens
SK-OV-3 = experiment: NCI-60 SRB screen, ovarian cancer; type: cell-based, human; conditions: Homo sapiens
786-0 = experiment: NCI-60 SRB screen, renal cancer; type: cell-based, human; conditions: Homo sapiens
A498 = experiment: NCI-60 SRB screen, renal cancer; type: cell-based, human; conditions: Homo sapiens
CAKI-1 = experiment: NCI-60 SRB screen, renal cancer; type: cell-based, human; conditions: Homo sapiens
RXF 393 = experiment: NCI-60 SRB screen, renal cancer; type: cell-based, human; conditions: Homo sapiens
TK-10 = experiment: NCI-60 SRB screen, renal cancer; type: cell-based, human; conditions: Homo sapiens
HS 578T = experiment: NCI-60 SRB screen, breast cancer; type: cell-based; conditions: Homo sapiens, 48 h
BT-549 = experiment: NCI-60 SRB screen, breast cancer; type: cell-based, human; conditions: Homo sapiens
T-47D = experiment: NCI-60 SRB screen, breast cancer; type: cell-based, human; conditions: Homo sapiens, T47D, 48 h
[2] = system: MCF-7 human breast cancer cells; experiment: cells
[3] = HL-60(TB), five dose 0.01–100 µM, 48 h
[4] = MCF7, read-out: Antiproliferative Activity IC50

Question: With `C=CCC1C(=O)N(c2cc(OC)c(OC)c(OC)c2)C1c1ccc(OC)c(O)c1` (stereo not shown) [10p, 4-(3-Hydroxy-4-methoxyphenyl)-1-(3,4,5-trimethoxyphenyl)-3-allylazetidin-2-one] as the molecule, how does the “Fold Reduction in Vmax” value [1] read?
Answer: 4.5

Question: And the GI50 (HL-60(TB); [3])?
Answer: 32.3 nM

Question: And the GI50 (HL-60(TB); HL-60, NCI screen)?
Answer: < 34 nM

Question: What about the GI50 (RPMI-8226; RPMI-8226, five dose 0.01–100 µM, 48 h, read-out: GI50) of the same molecule?
Answer: 40.6 nM

Question: And the GI50 (SR; five dose 0.01–100 µM, read-out: GI50)?
Answer: 31.4 nM

Question: What about the GI50 (HOP-62; HOP-62, five dose 0.01–100 µM, 48 h, read-out: GI50) of the same molecule?
Answer: 61 nM

Question: What about the GI50 (NCI-H23; NCI-H23, five dose 0.01–100 µM, 48 h, read-out: GI50) of the same molecule?
Answer: 30.7 nM

Question: What about the GI50 (COLO 205; COLO 205, five dose 0.01–100 µM, 48 h, read-out: GI50) of the same molecule?
Answer: 563 nM

Question: What about the GI50 (HCT-2998; HCT-2998, five dose 0.01–100 µM, read-out: GI50) of the same molecule?
Answer: 29.9 nM

Question: What about the GI50 (HCT-116; HCT-116, five dose 0.01–100 µM, 48 h, read-out: GI50) of the same molecule?
Answer: 24.9 nM

Question: And the GI50 (HT29; HT-29, HT29, five dose 0.01–100 µM, 48 h, read-out: GI50)?
Answer: 360 nM

Question: And the GI50 (SNB-19; SNB-19, five dose 0.01–100 µM, 48 h, read-out: GI50)?
Answer: 58.9 nM

Question: What about the GI50 (U251; U-251, U251, five dose 0.01–100 µM, 48 h, read-out: GI50) of the same molecule?
Answer: 31.7 nM

Question: What about the GI50 (PC-3; PC-3, five dose 0.01–100 µM, 48 h, read-out: GI50) of the same molecule?
Answer: 40.3 nM

Question: What about the GI50 (SK-MEL-5; SK-MEL-5, five dose 0.01–100 µM, 48 h, read-out: GI50) of the same molecule?
Answer: 24.9 nM

Question: And the GI50 (UACC-62; UACC-62, five dose 0.01–100 µM, 48 h, read-out: GI50)?
Answer: 32 nM

Question: And the GI50 (IGROV1; IGROV-1, IGROV1, five dose 0.01–100 µM, 48 h, read-out: GI50)?
Answer: 44.8 nM

Question: What about the GI50 (OVCAR-3; OVCAR-3, five dose 0.01–100 µM, 48 h, read-out: GI50) of the same molecule?
Answer: 23.3 nM

Question: What about the GI50 (OVCAR-5; OVCAR-5, five dose 0.01–100 µM, 48 h, read-out: GI50) of the same molecule?
Answer: 61.8 nM

Question: And the GI50 (SK-OV-3; SK-OV-3, five dose 0.01–100 µM, 48 h, read-out: GI50)?
Answer: 36.6 nM

Question: And the GI50 (786-0; 786-0, five dose 0.01–100 µM, 48 h, read-out: GI50)?
Answer: 25.5 nM

Question: What about the GI50 (A498; A498, five dose 0.01–100 µM, 48 h, read-out: GI50) of the same molecule?
Answer: 17.5 nM

Question: What about the GI50 (CAKI-1; CAKI-1, five dose 0.01–100 µM, 48 h, read-out: GI50) of the same molecule?
Answer: 44 nM

Question: What about the GI50 (RXF 393; RXF 393, five dose 0.01–100 µM, 48 h, read-out: GI50) of the same molecule?
Answer: 41 nM

Question: And the GI50 (TK-10; TK-10, five dose 0.01–100 µM, 48 h, read-out: GI50)?
Answer: 80.2 nM

Question: And the GI50 (HS 578T; HS 578T, five dose 0.01–100 µM, read-out: GI50)?
Answer: 51.7 nM

Question: And the GI50 (BT-549; BT-549, five dose 0.01–100 µM, 48 h, read-out: GI50)?
Answer: 18.8 nM

Question: What about the GI50 (T-47D; T-47D, five dose 0.01–100 µM, read-out: GI50) of the same molecule?
Answer: 63.5 µM

Question: What about the IC50 ([2]; MCF7, read-out: Antiproliferative Activity IC50, MCF-7, eight concentrations 0.001–50 μM, mean ± SEM, Table 3) of the same molecule?
Answer: 31 ± 2 nM

Question: Which results are given for `C=CC=CC1C(=O)N(c2cc(OC)c(OC)c(OC)c2)C1c1ccc(OC)cc1` (stereo not shown) [11h, 3-(Buta-1,3-dienyl)-4-(4-methoxyphenyl)-1-(3,4,5-trimethoxyphenyl)azetidin-2-one]?
Answer: Vmax [1]: 0.0035 mOD/min; Fold Reduction in Vmax [1]: 2.9; GI50 (HL-60(TB); [3]): 33.8 nM; GI50 (HL-60(TB); HL-60, NCI screen): < 34 nM; GI50 (RPMI-8226; RPMI-8226, 48 h): 38.4 nM; GI50 (SR): 35.6 nM; GI50 (HOP-62; HOP-62, 48 h): 55.8 nM; GI50 (NCI-H23; NCI-H23, 48 h): 32.1 nM; GI50 (COLO 205; COLO 205, 48 h): 26.5 nM; GI50 (HCT-2998): 30 nM; GI50 (HCT-116; HCT-116, 48 h): 26.4 nM; IC50 (HT29; HT-29): 33 nM; GI50 (HT29; HT-29, 48 h): 33.2 nM; GI50 (SNB-19; SNB-19, 48 h): 65.4 nM; GI50 (U251; U-251, 48 h): 32.2 nM; GI50 (PC-3; PC-3, 48 h): 40.4 nM; GI50 (SK-MEL-5; SK-MEL-5, 48 h): 26 nM; GI50 (UACC-62; UACC-62, 48 h): 26.7 nM; GI50 (IGROV1; IGROV-1, 48 h): 50.7 nM; GI50 (OVCAR-3; OVCAR-3, 48 h): 25.2 nM; GI50 (OVCAR-5; OVCAR-5, 48 h): 94.8 nM; GI50 (SK-OV-3; SK-OV-3, 48 h): 37.3 nM; GI50 (786-0; 786-0, 48 h): 23.1 nM; GI50 (A498; A498, 48 h): 18.3 nM; GI50 (CAKI-1; CAKI-1, 48 h): 58.9 nM; GI50 (RXF 393; RXF 393, 48 h): 30.1 nM; GI50 (TK-10; TK-10, 48 h): 61.7 nM; GI50 (HS 578T; Hs-578T): 24.7 nM; GI50 (BT-549; BT-549, 48 h): 20.3 nM; GI50 (T-47D): 56.2 µM; IC50 [2, 4]: 33 ± 5 nM

Question: With `C=C/C=C/C1C(=O)N(c2cc(OC)c(OC)c(OC)c2)C1c1ccc(OC)c(N)c1` (stereo not shown) [11r, (E)-4-(3-Amino-4-methoxyphenyl)-3-(buta-1,3-dien-1-yl)-1-(3,4,5-trimethoxyphenyl)azetidin-2-one] as the molecule, how does the Vmax [1] read?
Answer: 0.0035 mOD/min

Question: What about the “Fold Reduction in Vmax” value [1] of the same molecule?
Answer: 2.0

Question: What about the GI50 (HL-60(TB); [3]) of the same molecule?
Answer: 29.5 nM

Question: And the GI50 (HL-60(TB); HL-60, NCI screen)?
Answer: < 34 nM

Question: What about the GI50 (RPMI-8226; RPMI-8226, 48 h) of the same molecule?
Answer: 34.8 nM

Question: What about the GI50 (SR) of the same molecule?
Answer: 33.5 nM

Question: What about the GI50 (HOP-62; HOP-62, 48 h) of the same molecule?
Answer: 52.5 nM

Question: And the GI50 (NCI-H23; NCI-H23, 48 h)?
Answer: 30 nM

Question: What about the GI50 (COLO 205; COLO 205, 48 h) of the same molecule?
Answer: 23.1 nM

Question: And the GI50 (HCT-2998)?
Answer: 27 nM

Question: What about the GI50 (HCT-116; HCT-116, 48 h) of the same molecule?
Answer: 27.2 nM

Question: What about the IC50 (HT29; HT-29) of the same molecule?
Answer: 34 nM

Question: And the GI50 (HT29; HT-29, 48 h)?
Answer: 33.6 nM

Question: What about the GI50 (SNB-19; SNB-19, 48 h) of the same molecule?
Answer: 64.9 nM

Question: What about the GI50 (U251; U-251, 48 h) of the same molecule?
Answer: 35.7 nM

Question: And the GI50 (PC-3; PC-3, 48 h)?
Answer: 39.2 nM

Question: What about the GI50 (SK-MEL-5; SK-MEL-5, 48 h) of the same molecule?
Answer: 22.2 nM

Question: And the GI50 (UACC-62; UACC-62, 48 h)?
Answer: 39.6 nM

Question: And the GI50 (IGROV1; IGROV-1, 48 h)?
Answer: 46.6 nM

Question: And the GI50 (OVCAR-3; OVCAR-3, 48 h)?
Answer: 26.2 nM

Question: And the GI50 (OVCAR-5; OVCAR-5, 48 h)?
Answer: 93.7 nM

Question: What about the GI50 (SK-OV-3; SK-OV-3, 48 h) of the same molecule?
Answer: 35.6 nM

Question: What about the GI50 (786-0; 786-0, 48 h) of the same molecule?
Answer: 32.7 nM

Question: And the GI50 (A498; A498, 48 h)?
Answer: 22.3 nM

Question: What about the GI50 (CAKI-1; CAKI-1, 48 h) of the same molecule?
Answer: 63.1 nM

Question: And the GI50 (RXF 393; RXF 393, 48 h)?
Answer: 45.7 nM

Question: And the GI50 (TK-10; TK-10, 48 h)?
Answer: 74.8 nM

Question: What about the GI50 (HS 578T; Hs-578T) of the same molecule?
Answer: 53 nM

Question: What about the GI50 (BT-549; BT-549, 48 h) of the same molecule?
Answer: 25.3 nM

Question: And the GI50 (T-47D)?
Answer: > 100 µM

Question: What about the IC50 [2, 4] of the same molecule?
Answer: 36 ± 5 nM
